Reference: patent US20260262643A1, “HERBICIDAL BENZOXAZINES” (FMC CORPORATION, priority 2022, published 2026)

Key:
barnyardgrass [1] = experiment: Test C preemergence; format: in vivo, Echinochloa crusgalli
Procedure, shortened: (§1)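 Seeds sown in loam soil–sand blend received a directed preemergence soil spray of test chemical in non-phytotoxic solvent with surfactant; postemergence plants (2–10 cm, one- to two-leaf stage) were sprayed with the same formulation. Greenhouse-held 10 days, then visually rated for injury versus untreated controls, 0 (no effect) to 100 (complete control).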

blackgrass [2] = experiment: Test C preemergence; format: in vivo, Alopecurus myosuroides
Procedure, shortened: as §1

corn [3] = experiment: Test C preemergence; format: in vivo, Zea mays
Procedure, shortened: as §1

foxtail, giant [4] = experiment: Test C preemergence; format: in vivo, Setaria faberi
Procedure, shortened: as §1

kochia [5] = experiment: Test C preemergence; format: in vivo, Bassia scoparia
Procedure, shortened: as §1

oat, wild [6] = experiment: Test C preemergence; format: in vivo, Avena fatua
Procedure, shortened: as §1

pigweed, palmer [7] = experiment: Test C preemergence; format: in vivo, Amaranthus palmeri
Procedure, shortened: as §1

ragweed [8] = experiment: Test C preemergence; format: in vivo, Ambrosia artemisiifolia; details: Preemergence, 125 g ai/ha; 0 to 100 scale, 0 no effect, 100 complete control
Procedure, shortened: as §1

ryegrass, Italian [9] = experiment: Test C preemergence; format: in vivo, Lolium multiflorum
Procedure, shortened: as §1

soybean [10] = experiment: Test C preemergence; format: in vivo, Glycine max
Procedure, shortened: as §1

wheat [11] = experiment: Test C preemergence; format: in vivo, Triticum aestivum
Procedure, shortened: as §1

barnyardgrass [12] = experiment: Test C postemergence; format: in vivo, Echinochloa crusgalli; details: 10 days, 0 to 100 scale (0 no effect, 100 complete control)
Procedure, shortened: as §1

blackgrass [13] = experiment: Test C postemergence; format: in vivo, Alopecurus myosuroides; details: 10 days, 0 to 100 scale (0 no effect, 100 complete control)
Procedure, shortened: as §1

corn [14] = experiment: Test C postemergence; format: in vivo, Zea mays; details: 10 days, 0 to 100 scale (0 no effect, 100 complete control)
Procedure, shortened: as §1

foxtail, giant [15] = experiment: Test C postemergence; format: in vivo, Setaria faberi; details: 10 days, 0 to 100 scale (0 no effect, 100 complete control)
Procedure, shortened: as §1

kochia [16] = experiment: Test C postemergence; format: in vivo, Bassia scoparia; details: 10 days, 0 to 100 scale (0 no effect, 100 complete control)
Procedure, shortened: as §1

oat, wild [17] = experiment: Test C postemergence; format: in vivo, Avena fatua; details: 10 days, 0 to 100 scale (0 no effect, 100 complete control)
Procedure, shortened: as §1

pigweed, palmer [18] = experiment: Test C postemergence; format: in vivo, Amaranthus palmeri; details: 10 days, 0 to 100 scale (0 no effect, 100 complete control)
Procedure, shortened: as §1

ragweed [19] = experiment: Test C postemergence; format: in vivo, Ambrosia artemisiifolia; details: 10 days, 0 to 100 scale (0 no effect, 100 complete control)
Procedure, shortened: as §1

ryegrass, Italian [20] = experiment: Test C postemergence; format: in vivo, Lolium multiflorum; details: 10 days, 0 to 100 scale (0 no effect, 100 complete control)
Procedure, shortened: as §1

soybean [21] = experiment: Test C postemergence; format: in vivo, Glycine max; details: 10 days, 0 to 100 scale (0 no effect, 100 complete control)
Procedure, shortened: as §1

wheat [22] = experiment: Test C postemergence; format: in vivo, Triticum aestivum; details: 10 days, 0 to 100 scale (0 no effect, 100 complete control)
Procedure, shortened: as §1

galium = experiment: Test C postemergence; format: in vivo, Galium aparine; details: 10 days, 0 to 100 scale (0 no effect, 100 complete control)
Procedure, shortened: as §1

horseweed = experiment: Test C postemergence; format: in vivo, Erigeron canadensis; details: 10 days, 0 to 100 scale (0 no effect, 100 complete control)
Procedure, shortened: as §1

barnyardgrass [23] = experiment: Test D flooded paddy test; format: in vivo, Echinochloa crus-galli; details: 250 g ai/ha, applied to paddy water, visual rating after 13 to 14 days, scale 0 to 100 (0 no effect, 100 complete control)
Procedure, shortened: (§2)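 Seedlings reached the 2-leaf stage, then pots were flooded to 3 cm over the soil surface. Compound was applied into the water, depth was maintained, and plants stayed in the greenhouse 13 to 14 days before visual scoring (0–100) relative to controls.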

ducksalad = experiment: Test D flooded paddy test; format: in vivo, Heteranthera limosa; details: 250 g ai/ha, applied to paddy water, visual rating after 13 to 14 days, scale 0 to 100 (0 no effect, 100 complete control)
Procedure, shortened: as §2

rice = experiment: Test D flooded paddy test; format: in vivo, Oryza sativa; details: 250 g ai/ha, applied to paddy water, visual rating after 13 to 14 days, scale 0 to 100 (0 no effect, 100 complete control)
Procedure, shortened: as §2

sedge, umbrella = experiment: Test D flooded paddy test; format: in vivo, Cyperus difformis; details: 250 g ai/ha, applied to paddy water, visual rating after 13 to 14 days, scale 0 to 100 (0 no effect, 100 complete control)
Procedure, shortened: as §2

[24] = 500 g ai/ha, preemergence, 0 to 100 scale (0 no effect, 100 complete control)
[25] = Preemergence, 125 g ai/ha, 0 to 100 scale, 0 no effect, 100 complete control

## CC(C)(C)c1ncn(-c2cc(C(=O)N3CC(C(F)(F)F)Oc4c(Cl)cccc43)ccn2)n1 (stereo not drawn) [Compound 322]
Barnyardgrass [1]; [24]
  Barnyardgrass plant response rating: 90
Barnyardgrass [1]; [25]
  Plant response rating, Barnyardgrass: 40
Blackgrass [2]; [24]
  Blackgrass plant response rating: 40
Blackgrass [2]; [25]
  Plant response rating, Blackgrass: 40
Corn [3]; [24]
  Corn plant response rating: 30
Corn [3]; [25]
  Plant response rating, Corn: 30
foxtail, giant [4]; [24]
  Foxtail, Giant plant response rating: 100
foxtail, giant [4]; [25]
  Plant response rating, Foxtail, Giant: 90
Kochia [5]; [24]
  Kochia plant response rating: 40
Kochia [5]; [25]
  Plant response rating, Kochia: 20
oat, wild [6]; [24]
  Oat, Wild plant response rating: 30
oat, wild [6]; [25]
  Plant response rating, Oat, Wild: 0
pigweed, palmer [7]; [24]
  Pigweed, Palmer plant response rating: 90
pigweed, palmer [7]; [25]
  Plant response rating, Pigweed, Palmer: 40
Ragweed [8]
  Plant response rating, Ragweed: 0
ryegrass, Italian [9]; [24]
  Ryegrass, Italian plant response rating: 80
ryegrass, Italian [9]; [25]
  Plant response rating, Ryegrass, Italian: 60
Soybean [10]; [24]
  Soybean plant response rating: 70
Soybean [10]; [25]
  Plant response rating, Soybean: 0
Wheat [11]; [24]
  Wheat plant response rating: 20
Wheat [11]; [25]
  Plant response rating, Wheat: 0
Barnyardgrass [12]; 500 g ai/ha, postemergence
  Plant response rating, Barnyardgrass: 50
Barnyardgrass [12]; Postemergence, 125 g ai/ha
  Plant response rating, Barnyardgrass: 40
Blackgrass [13]; 500 g ai/ha, postemergence
  Plant response rating, Blackgrass: 40
Blackgrass [13]; Postemergence, 125 g ai/ha
  Plant response rating, Blackgrass: 10
Corn [14]; 500 g ai/ha, postemergence
  Plant response rating, Corn: 10
Corn [14]; Postemergence, 125 g ai/ha
  Plant response rating, Corn: 10
foxtail, giant [15]; 500 g ai/ha, postemergence
  Plant response rating, Foxtail, Giant: 90
foxtail, giant [15]; Postemergence, 125 g ai/ha
  Plant response rating, Foxtail, Giant: 50
Kochia [16]; 500 g ai/ha, postemergence
  Plant response rating, Kochia: 80
Kochia [16]; Postemergence, 125 g ai/ha
  Plant response rating, Kochia: 60
oat, wild [17]; 500 g ai/ha, postemergence
  Plant response rating, Oat, Wild: 30
oat, wild [17]; Postemergence, 125 g ai/ha
  Plant response rating, Oat, Wild: 0
pigweed, palmer [18]; 500 g ai/ha, postemergence
  Plant response rating, Pigweed, Palmer: 90
pigweed, palmer [18]; Postemergence, 125 g ai/ha
  Plant response rating, Pigweed, Palmer: 50
Ragweed [19]; 500 g ai/ha, postemergence
  Plant response rating, Ragweed: 50
Ragweed [19]; Postemergence, 125 g ai/ha
  Plant response rating, Ragweed: 40
ryegrass, Italian [20]; 500 g ai/ha, postemergence
  Plant response rating, Ryegrass, Italian: 40
ryegrass, Italian [20]; Postemergence, 125 g ai/ha
  Plant response rating, Ryegrass, Italian: 20
Soybean [21]; 500 g ai/ha, postemergence
  Plant response rating, Soybean: 100
Soybean [21]; Postemergence, 125 g ai/ha
  Plant response rating, Soybean: 60
Wheat [22]; 500 g ai/ha, postemergence
  Plant response rating, Wheat: 20
Wheat [22]; Postemergence, 125 g ai/ha
  Plant response rating, Wheat: 20
galium; 500 g ai/ha, postemergence
  Plant response rating, Galium: 70
galium; Postemergence, 125 g ai/ha
  Plant response rating, Galium: 70
horseweed; 500 g ai/ha, postemergence
  Plant response rating, Horseweed: 0
horseweed; Postemergence, 125 g ai/ha
  Plant response rating, Horseweed: 0
Barnyardgrass [23]
  Plant response rating, Barnyardgrass (Flood): 0
ducksalad
  Plant response rating, Ducksalad (Flood): 0
rice
  Plant response rating, Rice (Flood): 0
sedge, umbrella
  Plant response rating, Sedge, Umbrella (Flood): 0
